Laboratory results published in patent US10899764B2, “Imidazo isoindole derivative, preparation method therefor and medical use thereof” (Jiangsu Hengrui Medicine Co., Ltd., priority 2015, dated 2021).
Where a name gives a salt, the structure may show the parent alone. Read-outs that look alike come from different tables or passages of the source.

Assays:
human IDO1 = human IDO1 (Homo sapiens (Human), UniProt P14902); assay: Inhibition activity on human IDO1 (enzyme assay, absorbance at 480 nm); type: biochemical; conditions: read-out: IC50 for inhibiting the activity of human IDO1
Description: Assay for Determining the Inhibition Activity of the Present Compounds on Human IDO1
Human IDO1 activity was tested in vitro by the following method.
This method is used to determine the inhibition effect of the compounds of the present invention on the activity of human IDO1.
The human IDO1 gene was transferred to Pet30a plasmid by gene cloning, and then transferred to competent Escherichia coli Rosseta. The IDO1 gene was scaled-up by culturing in liquid LB (Luria-Bertani) medium [which was prepared per liter according to “Molecular Cloning A Laboratory Manual” (J. Sambrook, D. W. Russell)]). The bacteria were collected and lysed by ultrasonic waves. The purified IDO1 was obtained by eluting from a column.
For testing, 24 μL of enzyme (IDO1) was diluted 100 times with 50 mM KPB to 2400 μL. The concentration of the enzyme solution was 2.6 ng/μL. A 96 well reaction plate (AXYGEN, PCR-96-FLT-C) (hereinafter referred to as the “reaction plate”) was added with the enzyme solution at 24 μL/well. The blank well was added with 24 μL of KPB [Preparation of KPB buffer (50 mM): 6.805 g of KH2PO4 was weighed using an analytical balance, and placed into a 1000 mL beaker, deionized water was added with a measuring cylinder to 900 ml, the pH was adjusted to 6.5 by 1M KOH, then the mixture was introduced into a 1 L measuring cylinder, and water was added to 1 L. It was stored at 4° C.]. Then, 1 μL of a compound or DMSO was added into the corresponding wells in the reaction plate. Preparation of solution A: 200 μL of 500 mM L-sodium ascorbate were added with 1050 μL of KPB, then the mixture was mixed uniformly for 3 seconds at the maximum speed in a turbine mixer. Solution B: 100 μL of 10 mM tryptophan were added with 100 μL of 100,000 unit/mL catalase, 5 μL of 10 mM methylene blue, and 1050 μL of KPB successively, then the mixture was mixed uniformly for 3 seconds at the maximum speed in a turbine mixer. Then, 1200 μL of solution A and 1200 μL of solution B were taken and mixed uniformly for 3 seconds at the maximum speed in a turbine mixer. The mixture was added to the reaction plate at 24 μL/well. The reaction plate was placed in a plate centrifuge and centrifuged for 15 seconds at the maximum speed, so that the reaction liquids converged to the bottom. The reaction mixture was mixed uniformly for 30 seconds on a shaker, and incubated for 1 hour at 37° C. in a constant temperature incubator. In the reaction plate, 30% (W/V) trichloroacetic acid was added at 10 μL/well, then the mixture was incubated for 15 minutes at 65° C. in an incubator. The reaction plate was centrifuged in a centrifuge for 5 minutes at 4700 RPM at room temperature. […] Then, 2% (W/V) 4-(dimethylamino)benzaldehyde/glacial acetic acid solution was added at 40 μL/well, and the mixture was mixed uniformly for 1 minute on a shaker at the maximum speed. After incubation for 2 minutes at room temperature, the absorbance at 480 nm was read on a Synergy HT (BIOTEK) reader.
The inhibition activity of the compounds of the present invention on human IDO1 was tested by the assay described above.

human TDO = human TDO (Homo sapiens (Human), UniProt P48775); assay: Inhibition activity on human TDO (tryptophan 2,3-dioxygenase) (enzyme assay, absorbance at 480 nm); type: biochemical; conditions: read-out: IC50 for inhibiting the activity of human TDO
Description: Assay for Determining the Inhibition activity of the Compounds of the Present Invention on Human TDO (tryptophan 2,3-dioxygenase)
Human TDO activity was tested in vitro by the following method.
This method is used to determine the inhibition effect of the compounds of the present invention on the activity of human TDO.
Plasmids constructed with the human TDO gene were transferred to competent Escherichia coli Rosseta. The TDO gene was scaled-up by culturing in liquid LB (Luria-Bertani) medium [which was prepared per liter according to “Molecular Cloning A Laboratory Manual” (J. Sambrook, D. W. Russell)]). The bacteria were collected and lysed by ultrasonic waves. The purified TDO was obtained by eluting from a column.
For testing, 24 μL of enzyme (TDO) was diluted 100 times with 50 mM KPB to 2400 μL. The concentration of the enzyme solution was 2.6 ng/μL. A 96 well reaction plate (AXYGEN, PCR-96-FLT-C) (hereinafter referred to as the “reaction plate”) was added with the enzyme solution at 24 μL/well. The blank well was added with 24 μL of KPB [Preparation of KPB buffer (50 mM): 6.805 g of KH2PO4 was weighed using an analytical balance, and placed into a 1000 mL beaker, deionized water was added with a measuring cylinder to 900 mL, the pH was adjusted to 6.5 by 1M KOH, then the mixture was introduced into a 1 L measuring cylinder, and water was added to 1 L. It was stored at 4° C.]. Then, 1 μL of a compound or DMSO was added into the corresponding wells in the reaction plate. Preparation of solution A: 200 μL of 500 mM L-sodium ascorbate was added with 1050 μL of KPB, then the mixture was mixed uniformly for 3 seconds at the maximum speed in a turbine mixer. Solution B: 100 μL of 10 mM tryptophan was added with 100 μL of 100,000 unit/ml catalase, 5 μL of 10 mM methylene blue, and 1050 μL of KPB successively, then the mixture was mixed uniformly for 3 seconds at the maximum speed in a turbine mixer. Then, 1200 μL of solution A and 1200 μL of solution B were taken and mixed uniformly for 3 seconds at the maximum speed in a turbine mixer. The mixture was added to the reaction plate at 24 μL/well. The reaction plate was placed in a plate centrifuge and centrifuged for 15 seconds at the maximum speed, so that the reaction liquids converged to the bottom. The reaction mixture was mixed uniformly for 30 seconds on a shaker, and incubated for 1 hour at 37° C. in a constant temperature incubator. In the reaction plate, 30% (W/V) trichloroacetic acid was added at 10 μL/well, then the mixture was incubated for 15 minutes at 65° C. in a incubator. The reaction plate was centrifuged in a centrifuge for 5 minutes at 4700 RPM at room temperature. […] Then, 2% (W/V) 4-(dimethylamino)benzaldehyde/glacial acetic acid solution was added at 40 μL/well, then the mixture was mixed uniformly for 1 minute on a shaker at the maximum speed. After incubation for 2 minutes at room temperature, the absorbance at 480 nm was read on a Synergy HT Reader.
The inhibition activity of the compounds of the present invention on human TDO was tested by the assay described above.

IDO in HeLa cells = IDO in HeLa cells (Homo sapiens (Human), UniProt P14902); assay: Inhibition activity on IDO in HeLa cells (INF-γ induced); type: cell-based; conditions: read-out: IC50 for inhibiting the activity of IDO in HeLa cells
Description: Assay for Determining the Inhibition Activity of the Present Compounds on IDO in HeLa Cells
IDO activity in HeLa cells was tested in vitro by the following method.
This method is used to determine the inhibition effect of the compounds of the present invention on the activity of IDO in HeLa cells. (Note: indoleamine 2,3-dioxygenase (IDO) is expressed in the HeLa cell line and induced by interferon gamma (INF-γ)).
The supernatant was removed, serum-free DMEM high glucose medium was added at 90 μL/well, then the compounds contained in the culture medium with INF-γ and tryptophan were added at 10 μL/well (the final concentrations: 10000, 1000, 100, 10, 1, 0.1 nM). […] Then, 80 μL of the supernate was transferred from the 96-well cell culture plate to a 96 well round-bottomed plate, then 30% (W/V) trichloroacetic acid was added at 16 μL/well, then the mixture was incubated for 25 minutes at 65° C. in an incubator. The reaction plate was centrifuged in a centrifuge for 5 minutes at 4700 RPM. Then, 50 μL of the supernatant was transferred from the reaction plate to a 96-well flat-bottomed transparent plate by a multi-channel pipette. Then, 2% (W/V) 4-(dimethylamino)benzaldehyde/glacial acetic acid solution was added at 50 μL/well, then the mixture was mixed uniformly for 1 minute on a shaker. After incubation for 2 minutes at room temperature, the absorbance at 480 nm was read on a Synergy HT Reader.
The inhibition activity of the compounds of the present invention on IDO in HeLa cells was tested by the assay described above.

[1] = purified recombinant human IDO1, 1 hour at 37° C.
[2] = purified recombinant human TDO, 1 hour at 37° C.
[3] = HeLa cells, INF-γ and tryptophan, 48 hours

Chain of human TDO (P48775 whole entry): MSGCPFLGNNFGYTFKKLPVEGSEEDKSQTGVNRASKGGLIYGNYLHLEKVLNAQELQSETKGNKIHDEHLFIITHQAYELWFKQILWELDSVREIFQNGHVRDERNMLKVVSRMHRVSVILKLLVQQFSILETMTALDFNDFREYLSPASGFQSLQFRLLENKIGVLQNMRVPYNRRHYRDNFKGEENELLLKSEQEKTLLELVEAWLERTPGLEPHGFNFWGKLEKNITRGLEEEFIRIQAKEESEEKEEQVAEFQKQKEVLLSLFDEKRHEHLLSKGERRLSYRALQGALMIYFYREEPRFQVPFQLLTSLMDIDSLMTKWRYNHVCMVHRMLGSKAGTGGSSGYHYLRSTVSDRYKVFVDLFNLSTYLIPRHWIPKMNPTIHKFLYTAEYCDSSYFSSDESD
Chain of IDO in HeLa cells (P14902 whole entry): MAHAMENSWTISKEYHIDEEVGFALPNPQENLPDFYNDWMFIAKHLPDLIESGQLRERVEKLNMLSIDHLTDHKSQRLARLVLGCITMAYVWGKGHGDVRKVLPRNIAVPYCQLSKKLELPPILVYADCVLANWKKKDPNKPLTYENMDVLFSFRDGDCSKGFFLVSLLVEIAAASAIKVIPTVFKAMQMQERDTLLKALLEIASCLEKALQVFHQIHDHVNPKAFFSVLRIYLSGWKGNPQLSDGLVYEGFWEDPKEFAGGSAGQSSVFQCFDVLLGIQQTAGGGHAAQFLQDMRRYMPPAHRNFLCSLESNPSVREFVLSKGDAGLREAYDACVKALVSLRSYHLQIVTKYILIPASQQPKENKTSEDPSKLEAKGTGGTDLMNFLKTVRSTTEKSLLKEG
Chain of human IDO1 (P14902 whole entry): as above

IC50 (human IDO1; [1])	IC50 (human TDO; [2])	IC50 (IDO in HeLa cells; [3])	SMILES	IC50 (human IDO1)	IC50 (human TDO)	IC50 (IDO in HeLa cells)
–	–	–	Fc1cccc2c1C(C1CCN(c3ccccc3)CC1)n1cncc1-2 (centres unmarked) [Example 1, 6-fluoro-5-(1-phenylpiperidin-4-yl)-5H-imidazo[5,1-a]isoindole trifluoroacetate]	87.4 nM	338 nM	–
–	–	–	Fc1ccc2c(c1)C(C1CCN(c3ccccc3)CC1)n1cncc1-2 (centres unmarked) [Example 2, 7-fluoro-5-(1-phenylpiperidin-4-yl)-5H-imidazo[5,1-a]isoindole trifluoroacetate]	–	215 nM	–
–	–	–	N#Cc1ccc(N2CCC(C3c4c(F)cccc4-c4cncn43)CC2)cc1 (centres unmarked) [Example 5, 4-(4-(6-fluoro-5H-imidazo[5,1-a]isoindol-5-yl)piperidin-1-yl)benzonitrile trifluoroacetate]	81.2 nM	394 nM	353 nM
–	–	–	NC(=O)c1ccc(N2CCC(C3c4c(F)cccc4-c4cncn43)CC2)cc1 (centres unmarked) [Example 6, 4-(4-(6-fluoro-5H-imidazo[5,1-a]isoindol-5-yl)piperidin-1-yl)benzamide trifluoroacetate]	–	394 nM	–
34 nM	361 nM	198 nM	Fc1cccc2c1C(C1CCN(c3ncc(-c4cnn(C5CCOCC5)c4)cn3)CC1)n1cncc1-2 (centres unmarked) [Example 18, 6-fluoro-5-(1-(5-(1-(tetrahydro-2H-pyran-4-yl)-1H-pyrazol-4-yl)pyrimidin-2-yl)piperidin-4-yl)-5H-imidazo[5,1-a]isoindole]	–	–	–
48.2 nM	399 nM	439 nM	Fc1cccc2c1C(C1CCN(c3ncc(-c4ccccc4)s3)CC1)n1cncc1-2 (centres unmarked) [Example 23, 2-(4-(6-fluoro-5H-imidazo[5,1-a]isoindol-5-yl)piperidin-1-yl)-5-phenylthiazole trifluoroacetate]	–	–	–
–	–	–	Fc1cccc2c1C(C1CCN(c3ccccc3)C1)n1cncc1-2 (centres unmarked) [Example 25, 6-fluoro-5-(1-phenylpyrrolidin-3-yl)-5H-imidazo[5,1-a]isoindole trifluoroacetate]	–	257 nM	–
35.9 nM	220 nM	292 nM	OC[C@@H](O)Cn1cc(-c2ccc(N3CCC(C4c5c(F)cccc5-c5cncn54)CC3)cc2)cn1 (stereo partly drawn) [Example 29, (2S)-3-(4-(4-(4-(6-fluoro-5H-imidazo[5,1-a]isoindol-5-yl)piperidin-1-yl)phenyl)-1H-pyrazol-1-yl)propane-1,2-diol]	–	–	–
58.7 nM	319 nM	334 nM	OC[C@H](O)Cn1cc(-c2ccc(N3CCC(C4c5c(F)cccc5-c5cncn54)CC3)cc2)cn1 (stereo partly drawn) [Example 30, (2R)-3-(4-(4-(4-(6-fluoro-5H-imidazo[5,1-a]isoindol-5-yl)piperidin-1-yl)phenyl)-1H-pyrazol-1-yl)propane-1,2-diol trifluoroacetate]	–	–	–
10.6 nM	104 nM	27.8 nM	Nc1cc(-c2nnc(N3CCC(C4c5c(F)cccc5-c5cncn54)CC3)s2)ccn1 (centres unmarked) [Example 36, 4-(5-(4-(6-fluoro-5H-imidazo[5,1-a]isoindol-5-yl)piperidin-1-yl)-1,3,4-thiadiazol-2-yl)pyridin-2-amine trifluoroacetate]	–	–	–
15.5 nM	243 nM	198 nM	CS(=O)(=O)N1CCC(Oc2ccc(N3CCC(C4c5c(F)cccc5-c5cncn54)CC3)cc2)CC1 (centres unmarked) [Example 39, 6-fluoro-5-(1-(4-((1-(methylsulfonyl)piperidin-4-yl)oxy)phenyl)piperidin-4-yl)-5H-imidazo[5,1-a]isoindole]	–	–	–

SMILES	IC50 (human IDO1; [1])	IC50 (human TDO; [2])	IC50 (IDO in HeLa cells; [3])	IC50 (human IDO1)	IC50 (human TDO)	IC50 (IDO in HeLa cells)
N#Cc1ccc(N2CCC(C3c4c(F)cccc4-c4cncn43)CC2)cc1F (centres unmarked) [Example 45, 2-fluoro-4-(4-(6-fluoro-5H-imidazo[5,1-a]isoindol-5-yl)piperidin-1-yl)benzonitrile]	8.84 nM	234 nM	231 nM	–	–	–
Fc1ccc(N2CCC(C3c4c(F)cccc4-c4cncn43)CC2)cc1F (centres unmarked) [Example 46, 5-(1-(3,4-difluorophenyl)piperidin-4-yl)-6-fluoro-5H-imidazo[5,1-a]isoindole]	–	–	69.1 nM	6.68 nM	68.9 nM	–
